Laboratory results: PMC11011439, “Influence of Molecular Design on the Tumor Targeting and Biodistribution of PSMA-Binding Tracers Labeled with Technetium-99m” (International Journal of Molecular Sciences, 2024)
Marks after values point to notes of the source that are not given here.

Tests used:
PSMA [1] = target: T1, PSMA (Homo sapiens, UniProt Q04609); assay: In vitro binding specificity (saturation with non-labeled PSMA-11) on PC3-pip cells; conditions: 2 nM tracer, 250-fold molar excess of PSMA-11, 1 h, 37 °C
T1 construct: expressed in transfected cells; host or cells: PC3-pip cells (from Prof. Martin G. Pomper, Johns Hopkins University)
Procedure: For the in vitro binding specificity test, approximately 8 × 10^5 of PC3-pip cells per well were seeded in 6-well plates 24 h before the experiment. Cells in three control wells were pre-saturated with a 250-fold excess of non-labeled PSMA-11 15 min before the addition of radiotracers, while the second set was treated with complete media. After 15 min of incubation at room temperature, [^99mTc]Tc-labeled radioligands were added to all wells to reach a concentration of 2 nM. After one hour of incubation at 37 °C, the cells were washed with PBS solution, detached, and collected. Cell-associated activity was measured using a gamma counter and presented as the percentage of added activity.

[2] = Biodistribution in NMRI mice; format: in vivo; conditions: for activity in carcass / activity in intestines with content / uptake in blood / uptake in kidney / uptake in liver / uptake in lung / uptake in salivary glands / uptake in spleen / uptake in stomach: 40 pmol/mouse iv
Procedure: Four NMRI mice were intravenously injected with 40 pmol of the radiotracer (60 kBq, the mass of the injected compound was adjusted with an unlabeled tracer). The mice were euthanized with a lethal intraperitoneal injection of ketamine/xylazine, followed by exsanguination at 3 and 24 h post-injection (pi). The organs of interest were collected, weighed, and measured for their activity content using a gamma counter. The uptake activity in organs was calculated as the percentage of injected activity per gram (%IA/g) for the blood, salivary glands, lungs, liver, spleen, stomach, and kidneys and as %IA for the remaining carcass and the rest of the intestines with content.

PSMA [3] = target: T1, PSMA; assay: Real-time binding kinetics on living PC3-pip cells (LigandTracer Yellow); conditions: 5 nM tracer, 1:2 interaction model
Procedure: The binding kinetics of [^99mTc]Tc-labeled BQ0411, BQ0412, and BQ0413 were measured in real time using LigandTracer Yellow Instruments (Ridgeview Instruments AB, Uppsala, Sweden) on PC3-pip cells, as described earlier. The activity binding was recorded at 5 nM on the radiolabeled tracers for 150 min. After measuring the binding kinetics, the medium containing the labeled tracer was replaced with fresh medium, and the dissociation was monitored over 7 h. […]

[4] = tested on: PSMA-expressing prostate cancer xenografts (PC3-pip); assay: Biodistribution and tumor targeting in PC3-pip tumor-bearing mice; format: in vivo, BALB/c nu/nu mice; conditions: 3 h pi
Procedure: PSMA-expressing prostate cancer xenografts were implanted in BALB/c nu/nu mice by subcutaneous injection of PC3-pip cell suspension in PBS (10^7 cells/animal in 100 µL). The average tumor weight was 0.3 ± 0.2 g at the time of the experiment. Four mice per data point were used. Mice were intravenously injected with 5 nmol of the radiotracer (60 kBq, the mass of the injected compound was adjusted with an unlabeled tracer). The mice were euthanized 3 h pi, and the samples were treated as described above.

[5] = Stability of the [99mTc]Tc-maG3 complex in PBS and under cysteine challenge (radio-HPLC); format: physicochemical; conditions: room temperature, 1 h
Procedure: The iTLC data were cross-validated using radio-HPLC analysis, performed using a Hitachi Chromaster HPLC system with a radioactivity detector and Phenomenex Luna® C18 column (100 Å; 150 × 4.6 mm; 5 µm) at room temperature (20 °C), in the following conditions: solvent A: 0.1% trifluoroacetic acid (TFA) in H2O, solvent B: 0.1% TFA in acetonitrile, flow rate: 1 mL/min. For identity and purity analysis of [^99mTc]Tc-BQ0411 and [^99mTc]Tc-BQ0412, the method with a gradient from 5 to 60% solvent B over 20 min was used.
To evaluate the chemical stability of the [^99mTc]Tc-maG3 complex, fractions of radiolabeled conjugates (10 µL, 0.25 µg) were incubated with a 300× molar excess of cysteine or with PBS at room temperature for 1 h. The test was run in triplicate.

PC3-pip cells = assay: Cellular processing (internalization) during continuous incubation; format: cell-based; conditions: 2 nM, 37 °C
Procedure: To evaluate the cellular processing of [^99mTc]Tc-labeled BQ0411 and BQ0412, PC3-pip cells were incubated with the radiolabeled tracer (2 nM), and at predetermined time points (1, 2, 4, and 8 h), cells were treated with 0.5 mL of 4 M urea solution in a 0.2 M glycine buffer, pH 2.5, for 5 min on ice. After that, the acidic supernatant was collected, and this fraction was considered to be the membrane-bound activity. To lyse the cells, 0.5 mL of 1 M sodium hydroxide solution was added and incubated at 37 °C for at least 20 min. The alkaline-containing solution was collected, and the basic fraction was considered to be the internalized activity.

[6] = Octanol/water distribution coefficient (LogD); format: physicochemical; conditions: n-octanol / Milli-Q water
Procedure: The LogD was determined experimentally based on the procedure described earlier. Briefly, the radiolabeled compound of interest was added to a LoBind Eppendorf tube (Eppendorf, Hamburg, Germany) containing Milli-Q water (500 μL) and n-octanol (500 μL), and the mixture was vortexed and centrifuged. Thereafter, three fractions from each phase were collected and the activity was measured using a gamma counter. The LogD was calculated by dividing the average activity measured in octanol by the average activity measured in water.

T1 sequence (Q04609 whole entry): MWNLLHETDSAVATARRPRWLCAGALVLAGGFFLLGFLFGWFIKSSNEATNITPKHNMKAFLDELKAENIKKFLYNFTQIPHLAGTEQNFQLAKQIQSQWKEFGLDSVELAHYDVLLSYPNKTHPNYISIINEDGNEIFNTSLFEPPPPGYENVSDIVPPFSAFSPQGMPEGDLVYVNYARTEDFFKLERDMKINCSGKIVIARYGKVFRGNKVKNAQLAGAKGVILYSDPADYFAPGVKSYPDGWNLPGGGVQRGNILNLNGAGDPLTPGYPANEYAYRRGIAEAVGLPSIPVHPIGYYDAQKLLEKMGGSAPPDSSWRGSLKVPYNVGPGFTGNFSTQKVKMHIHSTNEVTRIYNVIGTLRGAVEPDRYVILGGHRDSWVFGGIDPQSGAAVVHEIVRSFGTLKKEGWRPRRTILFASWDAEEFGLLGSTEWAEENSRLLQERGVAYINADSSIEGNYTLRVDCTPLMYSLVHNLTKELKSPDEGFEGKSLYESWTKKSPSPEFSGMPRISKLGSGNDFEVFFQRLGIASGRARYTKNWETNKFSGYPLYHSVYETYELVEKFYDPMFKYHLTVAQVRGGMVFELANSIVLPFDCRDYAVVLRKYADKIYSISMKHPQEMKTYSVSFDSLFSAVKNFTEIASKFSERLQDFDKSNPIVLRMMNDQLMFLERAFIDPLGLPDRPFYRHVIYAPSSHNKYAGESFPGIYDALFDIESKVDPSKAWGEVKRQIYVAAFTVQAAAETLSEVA

Structure (SMILES): CC(=O)NC(CCCCNC(=O)CNC(=O)C[N]1C(=O)C[N]2C(=O)C[N]3C(=O)C[S][99Tc-]132=[O])C(=O)NCCCCCCCC(=O)NC(Cc1ccc(O)cc1)C(=O)NC(Cc1ccc2ccccc2c1)C(=O)NCCCCC(NC(=O)NC(CCC(=O)O)C(=O)O)C(=O)O (stereo not drawn) [[^99mTc]Tc-BQ0411]
- binding to PC3-pip cells after pre-treatment with excess non-labeled PSMA-11 (PSMA [1]): significantly (p ˂ 0.0001) decreased
- activity in carcass ([2]; 3 h pi): 6.4 ± 0.8 *^,a,b %IA/sample
- activity in intestines with content ([2]; 3 h pi): 43 ± 6 *^,a,b %IA/sample
- uptake in blood ([2]; 3 h pi): 1.4 ± 0.7 *^,a %IA/g
- uptake in kidney ([2]; 3 h pi): 129 ± 22 *^,a,b %IA/g
- uptake in liver ([2]; 3 h pi): 0.8 ± 0.1 *^,a %IA/g
- uptake in lung ([2]; 3 h pi): 0.8 ± 0.1 *^,a %IA/g
- uptake in salivary glands ([2]; 3 h pi): 0.5 ± 0.1 *^,a,b %IA/g
- uptake in spleen ([2]; 3 h pi): 0.38 ± 0.07 *^,b %IA/g
- uptake in stomach ([2]; 3 h pi): 0.42 ± 0.07 *^,b %IA/g
- activity in carcass ([2]; 24 h pi): 0.21 ± 0.01 ^b %IA/sample
- activity in intestines with content ([2]; 24 h pi): 0.3 ± 0.2 %IA/sample
- uptake in blood ([2]; 24 h pi): 0.027 ± 0.002 ^b %IA/g
- uptake in kidney ([2]; 24 h pi): 3.9 ± 0.6 ^b %IA/g
- uptake in liver ([2]; 24 h pi): 0.032 ± 0.004 ^b %IA/g
- uptake in lung ([2]; 24 h pi): 0.019 ± 0.005 ^b %IA/g
- uptake in salivary glands ([2]; 24 h pi): 0.022 ± 0.005 ^b %IA/g
- uptake in spleen ([2]; 24 h pi): 0.015 ± 0.002 %IA/g
- uptake in stomach ([2]; 24 h pi): 0.06 ± 0.02 ^b %IA/g
- activity remaining in the body ([2]; 3 h pi, excluding activity in the intestines with content): 40–50 % from injected
- washout of activity from kidneys ([2]; 24 h pi compared to 3 h pi): 97%
- ka1 (PSMA [3]): 24000 M⁻¹ s⁻¹
- ka2 (PSMA [3]): 67000 M⁻¹ s⁻¹
- kd1 (PSMA [3]): 1.4e-05 s⁻¹
- kd2 (PSMA [3]): 2e-05 s⁻¹
- activity in carcass ([4]; 5 nmol/mouse iv): 3.5 ± 0.9 %IA/sample
- activity in intestines with content ([4]; 5 nmol/mouse iv): 44 ± 5 ^a,b %IA/sample
- uptake in blood ([4]; 5 nmol/mouse iv): 1.0 ± 0.4 ^b %IA/g
- uptake in bone ([4]; 5 nmol/mouse iv): 0.20 ± 0.06 %IA/g
- uptake in kidney ([4]; 5 nmol/mouse iv): 13 ± 6 %IA/g
- uptake in liver ([4]; 5 nmol/mouse iv): 1.9 ± 0.7 ^a,b %IA/g
- uptake in lung ([4]; 5 nmol/mouse iv): 0.9 ± 0.3 ^a,b %IA/g
- uptake in muscle ([4]; 5 nmol/mouse iv): 0.17 ± 0.05 %IA/g
- uptake in pancreas ([4]; 5 nmol/mouse iv): 0.2 ± 0.1 %IA/g
- uptake in salivary glands ([4]; 5 nmol/mouse iv): 0.4 ± 0.1 %IA/g
- uptake in small intestine ([4]; 5 nmol/mouse iv): 0.9 ± 0.4 %IA/g
- uptake in spleen ([4]; 5 nmol/mouse iv): 1.0 ± 0.2 %IA/g
- uptake in stomach ([4]; 5 nmol/mouse iv): 0.4 ± 0.2 %IA/g
- uptake in tumor ([4]; 5 nmol/mouse iv): 27 ± 4 ^a,b %IA/g
- tumor-to-blood ratio ([4]; 5 nmol/mouse): 32 ± 11 ^b
- tumor-to-bone ratio ([4]; 5 nmol/mouse): 146 ± 57
- tumor-to-kidney ratio ([4]; 5 nmol/mouse): 2.3 ± 0.8 ^a
- tumor-to-liver ratio ([4]; 5 nmol/mouse): 16 ± 7 ^a,b
- tumor-to-lung ratio ([4]; 5 nmol/mouse): 33 ± 9 ^b
- tumor-to-muscle ratio ([4]; 5 nmol/mouse): 173 ± 47 ^b
- tumor-to-pancreas ratio ([4]; 5 nmol/mouse): 121 ± 46
- tumor-to-salivary ratio ([4]; 5 nmol/mouse): 69 ± 16 ^b
- tumor-to-small intestine ratio ([4]; 5 nmol/mouse): 35 ± 18 ^b
- tumor-to-spleen ratio ([4]; 5 nmol/mouse): 24 ± 7
- tumor-to-stomach ratio ([4]; 5 nmol/mouse): 86 ± 43 ^b
- activity uptake in the gastrointestinal tract (with content) [4]: over 40 %IA
- tumor uptake, fold higher compared with [99mTc]Tc-BQ0412 and [99mTc]Tc-BQ0413 [4]: 1.6 fold
- stability in the presence of cysteine ([5]; 300-fold molar excess of cysteine): stable
- stability during incubation in PBS ([5]; PBS): stable
- internalized activity (of cell-associated activity) (PC3-pip cells; 4 h of continuous incubation): 44 ± 1%
- internalized activity (of cell-associated activity) (PC3-pip cells; after 4 h (8 h of continuous incubation)): 44.2 ± 0.7%
- logD (octanol–water distribution coefficient) [6]: −2.3 ± 0.1
